Reference: US12544392B2, “Treatment of adenovirus infection or disease associated with adenovirus infection” (SymBio Pharmaceuticals Limited, priority 2023, dated 2026)

System: adenovirus (AdV)
Test: Human clinical study of once-weekly IV BCV (Example 4): viral load of AdV in plasma
Type: in vivo
Settings: cohorts 4-6: 0.4, 0.6 or 0.8 mg/kg (20, 30 or 40 mg/dose if body weight ≥50 kg) IV once weekly
Protocol: A human clinical study on the treatment of AdV infectious disease is conducted according to the following procedure. Patients aged 2 months or older who have asymptomatic AdV infection or AdV disease and have an underlying immunocompromised state, including hematopoietic stem cell transplant recipients before the immune reconstitution by the graft cells is achieved, organ transplant recipients on medication with an immunosuppressant, and patients with immunodeficiency syndrome. […] For patients who, at the physician's discretion, are assessed as being at high risk for AdV infection/recurrence of disease, the treatment period may be extended for up to 10 weeks, even after the 4-week treatment period is completed, if the AdV is not detected by the two most recent consecutive assays with an interval of 3 days at least. […] Adverse events are evaluated according to the National Cancer Institute Common Terminology Criteria for Adverse Events (NCI CTCAE) version 5.0 (grade 1-5). […]

CCCCCCCCCCCCCCCCOCCCOP(=O)(O)CO[C@H](CO)Cn1ccc(N)nc1=O [BCV, [(2S)-1-(4-amino-2-oxopyrimidin-1-yl)-3-hydroxypropan-2-yl]oxymethyl-(3-hexadecoxypropoxy)phosphinic acid]
levels of viral load of AdV during the study period: reaches below the LOD
